These are literature values, as cited in patent EP1815850B1, “Controlled release formulation of divalproic acid and its derivatives” (TEVA PHARMACEUTICAL INDUSTRIES LTD., priority 2006, dated 2007).

For the series the following is noted: in adults.

Regarding `CCCC(CCC)C(=O)O` [valproic acid, 2-Propylpentanoic acid], the elimination half-life result is “six and seventeen”.
